According to ChEMBL document CHEMBL5357027, “Annonaceous Acetogenins Synergistically Inhibit Hepatocellular Carcinoma with Sorafenib” (J Nat Prod, 2024):
pIC50: −log10 of the molar value. Calls of active or inactive are those of the source. No cut-off for these calls is given here.

Key:
[1] = tested on: HCCLM3; test: Induction of apoptosis in human HCCLM3 cells assessed as early apoptotic cells at 4 uM incubated for 48 hrs by Annexin V/FITC-PI staining based flow cytometry (reference value: 0.05%); format: functional
[2] = tested on: Huh-7; test: Synergistic cytotoxicity against human Huh-7 cells assessed as cell growth inhibition by measuring synergy score at 1 to 16 uM incubated for 48 hrs in presence of sorafenib at 1 to 16 uM by MTT assay; format: functional; details: dose 1-16 µM
[3] = tested on: MHCC97H; test: Synergistic inhibition of mitochondrial function in human MHCC97H cells assessed as reduction in intracellular ATP level at 8 uM incubated for 48 hrs in presence of 16 uM sorafenib; format: functional, cell-based
[4] = tested on: HepG2; test: Synergistic inhibition of mitochondrial function in human HepG2 cells assessed as reduction in intracellular ATP level at 8 uM incubated for 48 hrs in presence of 16 uM sorafenib; format: functional, cell-based
[5] = tested on: HCCLM3; test: Antitumor activity against human HCCLM3 cells xenografted in nude mouse assessed as decrease in tumor volume at 4 to 8 mg/kg, PO measured every other day for 21 days; format: functional, organism-based; details: dose 4-8 mg/kg, time 21.0 day
[6] = tested on: HCCLM3; test: Induction of apoptosis in human HCCLM3 cells assessed as early apoptotic cells at 4 uM incubated for 48 hrs in presence of 4uM sorafenib by Annexin V/FITC-PI staining based flow cytometry (reference value: 0.05%); format: functional
[7] = tested on: HCCLM3; test: Cytotoxicity against human HCCLM3 cells assessed as cell growth inhibition incubated for 48 hrs by MTT assay; format: functional, cell-based; details: HCCLM3, 48 h
[8] = tested on: HCCLM3; test: Inhibition of mitochondrial respiratory chain complex I in human HCCLM3 incubated for 24 hrs; format: cell-based
[9] = tested on: HCCLM3; test: Induction of apoptosis in human HCCLM3 cells assessed as necrotic cells at 4 uM incubated for 48 hrs in presence of 4uM sorafenib by Annexin V/FITC-PI staining based flow cytometry (reference value: 3.33%); format: functional
[10] = tested on: HCCLM3; test: Induction of apoptosis in human HCCLM3 cells assessed as viable cells at 4 uM incubated for 48 hrs by Annexin V/FITC-PI staining based flow cytometry (reference value: 96.55%); format: functional; details: read-out: Activity
[11] = tested on: HCCLM3; test: Induction of apoptosis in human HCCLM3 cells assessed as late apoptotic cells at 4 uM incubated for 48 hrs in presence of 4uM sorafenib by Annexin V/FITC-PI staining based flow cytometry (reference value: 0.07%); format: functional
[12] = Toxicity in nude mouse xenografted with human HCCLM3 cells assessed as decrease in body weight at 1 to 8 mg/kg, PO in presence of sorafenib measured every other day for 21 days; format: organism-based; details: in vivo, 504 h, dose 1-8 mg/kg, time 21 day
[13] = Toxicity in nude mouse xenografted with human HCCLM3 cells assessed as spleen damage at 1 to 8 mg/kg, PO in presence of sorafenib measured for 21 days by H and E staining based analysis; format: organism-based; details: in vivo, 504 h, dose 1-8 mg/kg, time 21 day
[14] = tested on: HCCLM3; test: Synergistic antitumor activity against human HCCLM3 cells xenografted in nude mouse assessed as decrease in tumor weight at 4 to 8 mg/kg, PO in presence of 32 mg/kg sorafenib measured every other day for 21 days; format: functional, organism-based; details: dose 4-8 mg/kg, time 21.0 day
[15] = tested on: MHCC97H; test: Synergistic cytotoxicity against human MHCC97H cells assessed as cell growth inhibition by measuring synergy score at 1 to 16 uM incubated for 48 hrs in presence of sorafenib at 1 to 16 uM by MTT assay; format: functional; details: dose 1-16 µM
[16] = tested on: HCCLM3; test: Induction of apoptosis in human HCCLM3 cells assessed as necrotic cells at 4 uM incubated for 48 hrs by Annexin V/FITC-PI staining based flow cytometry (reference value: 3.33%); format: functional
[17] = tested on: MHCC97H; test: Cytotoxicity against human MHCC97H cells assessed as cell growth inhibition incubated for 48 hrs by MTT assay; format: functional, cell-based
[18] = tested on: HCCLM3; test: Synergistic antitumor activity against human HCCLM3 cells xenografted in nude mouse assessed as decrease in tumor volume at 4 to 8 mg/kg, PO in presence of 32 mg/kg sorafenib measured every other day for 21 days; format: functional, organism-based; details: dose 4-8 mg/kg, time 21.0 day
[19] = Toxicity in nude mouse xenografted with human HCCLM3 cells assessed as liver damage at 4 to 8 mg/kg, PO measured for 21 days by H and E staining based analysis; format: organism-based; details: in vivo, 504 h, dose 4-8 mg/kg, time 21 day
[20] = tested on: HCCLM3; test: Induction of apoptosis in human HCCLM3 cells assessed as viable cells at 4 uM incubated for 48 hrs in presence of 4uM sorafenib by Annexin V/FITC-PI staining based flow cytometry (reference value: 96.55%); format: functional; details: read-out: Activity
[21] = tested on: Huh-7; test: Cytotoxicity against human Huh-7 cells assessed as cell growth inhibition incubated for 48 hrs by MTT assay; format: functional, cell-based; details: Huh-7, 48 h
[22] = Toxicity in nude mouse xenografted with human HCCLM3 cells assessed as liver damage at 1 to 8 mg/kg, PO in presence of sorafenib measured for 21 days by H and E staining based analysis; format: organism-based; details: in vivo, 504 h, dose 1-8 mg/kg, time 21 day
[23] = tested on: MHCC97H; test: Inhibition of mitochondrial function in human MHCC97H cells assessed as reduction in ATP production at 8 uM incubated for 48 hrs; format: functional, cell-based
[24] = tested on: HCCLM3; test: Induction of apoptosis in human HCCLM3 cells assessed as apoptotic ratio at 4 uM incubated for 48 hrs in presence of 4uM sorafenib by Annexin V/FITC-PI staining based flow cytometry relative to control; format: functional
[25] = tested on: HCCLM3; test: Synergistic antitumor activity against human HCCLM3 cells xenografted in nude mouse assessed as induction of aPOptosis in tumor at 4 to 8 mg/kg, PO in presence of 32 mg/kg sorafenib and measured for 21 days by tunel staining based immunohistochemical analysis; format: functional, organism-based; details: dose 4-8 mg/kg, time 21.0 day
[26] = Toxicity in nude mouse xenografted with human HCCLM3 cells assessed as heart damage at 1 to 8 mg/kg, PO in presence of sorafenib measured for 21 days by H and E staining based; format: organism-based; details: in vivo, 504 h, dose 1-8 mg/kg, time 21 day
[27] = tested on: HepG2; test: Synergistic cytotoxicity against human HepG2 cells assessed as cell growth inhibition by measuring synergy score at 1 to 16 uM incubated for 48 hrs in presence of sorafenib at 1 to 16 uM by MTT assay; format: functional; details: dose 1-16 µM
[28] = tested on: HCCLM3; test: Synergistic inhibition of mitochondrial function in human HCCLM3 cells assessed as reduction in intracellular ATP level at 8 uM incubated for 48 hrs in presence of 16 uM sorafenib; format: functional, cell-based
[29] = Toxicity in nude mouse xenografted with human HCCLM3 cells assessed as kidney damage at 1 to 8 mg/kg, PO in presence of sorafenib measured for 21 days by H and E staining based analysis; format: organism-based; details: in vivo, 504 h, dose 1-8 mg/kg, time 21 day
[30] = tested on: HepG2; test: Inhibition of mitochondrial function in human HepG2 cells assessed as reduction in ATP production at 8 uM incubated for 48 hrs; format: functional, cell-based
[31] = Toxicity in nude mouse xenografted with human HCCLM3 cells assessed as kidney damage at 4 to 8 mg/kg, PO measured for 21 days by H and E staining based analysis; format: organism-based; details: in vivo, 504 h, dose 4-8 mg/kg, time 21 day
[32] = Toxicity in nude mouse xenografted with human HCCLM3 cells assessed as lung damage at 4 to 8 mg/kg, PO measured for 21 days by H and E staining based analysis; format: organism-based; details: in vivo, 504 h, dose 4-8 mg/kg, time 21 day
[33] = tested on: HCCLM3; test: Synergistic cytotoxicity against human HCCLM3 cells assessed as cell growth inhibition by measuring synergy score at 1 to 16 uM incubated for 48 hrs in presence of sorafenib at 1 to 16 uM by MTT assay; format: functional; details: dose 1-16 µM
[34] = Toxicity in nude mouse xenografted with human HCCLM3 cells assessed as heart damage at 4 to 8 mg/kg, PO measured for 21 days by H and E staining based; format: organism-based; details: in vivo, 504 h, dose 4-8 mg/kg, time 21 day
[35] = tested on: HCCLM3; test: Induction of apoptosis in human HCCLM3 cells assessed as late apoptotic cells at 4 uM incubated for 48 hrs by Annexin V/FITC-PI staining based flow cytometry (reference value: 0.07%); format: functional
[36] = Toxicity in nude mouse xenografted with human HCCLM3 cells assessed as lung damage at 1 to 8 mg/kg, PO in presence of sorafenib measured for 21 days by H and E staining based analysis; format: organism-based; details: in vivo, 504 h, dose 1-8 mg/kg, time 21 day
[37] = tested on: HepG2; test: Cytotoxicity against human HepG2 cells assessed as cell growth inhibition incubated for 48 hrs by MTT assay; format: functional, cell-based; details: HepG2, 48 h
[38] = Toxicity in nude mouse xenografted with human HCCLM3 cells assessed as decrease in body weight at 4 to 8 mg/kg, PO measured every other day for 21 days; format: organism-based; details: in vivo, 504 h, dose 4-8 mg/kg, time 21 day
[39] = tested on: HCCLM3; test: Inhibition of mitochondrial function in human HCCLM3 cells assessed as reduction in ATP production at 8 uM incubated for 48 hrs; format: functional, cell-based
[40] = tested on: Huh-7; test: Inhibition of mitochondrial function in human Huh-7 cells assessed as reduction in ATP production at 8 uM incubated for 48 hrs; format: functional, cell-based
[41] = Toxicity in nude mouse xenografted with human HCCLM3 cells assessed as spleen damage at 4 to 8 mg/kg, PO measured for 21 days by H and E staining based analysis; format: organism-based; details: in vivo, 504 h, dose 4-8 mg/kg, time 21 day
[42] = tested on: Huh-7; test: Synergistic inhibition of mitochondrial function in human Huh-7 cells assessed as reduction in intracellular ATP level at 8 uM incubated for 48 hrs in presence of 16 uM sorafenib; format: functional, cell-based

CCCCCCCCCCCC[C@@H](O)[C@H]1CC[C@H]([C@H](O)CCCC[C@@H](O)CCCCC[C@@H](O)CC2=C[C@H](C)OC2=O)O1
Activity [1]: 1.7%
Activity [2]: 1.6
inhibition [3]: Active
inhibition [4]: Active
Activity [5]: Active
Activity [6]: 17.91%
pIC50 [7]: 5.13
inhibition [8]: Active
Activity [9]: 5.02%
viability at 4 µM [10]: 93.6%
Activity [11]: 3.24%
Activity [12]: Non-Toxic
Activity [13]: Non-Toxic
Activity [14]: Active
Activity [15]: 0.7
Activity [16]: 3.24%
pIC50 [17]: 5.13
Activity [18]: Active
Activity [19]: Non-Toxic
viability at 4 µM [20]: 73.8%
pIC50 [21]: 5.13
Activity [22]: Non-Toxic
inhibition [23]: Active
Activity [24]: 18.5%
Activity [25]: Active
Activity [26]: Non-Toxic
Activity [27]: 4.1
Activity [28]: Active
Activity [29]: Non-Toxic
inhibition [30]: Active
Activity [31]: Non-Toxic
Activity [32]: Non-Toxic
Activity [33]: 12.1
Activity [34]: Non-Toxic
Activity [35]: 1.46%
Activity [36]: Non-Toxic
pIC50 [37]: 5.13
Activity [38]: Non-Toxic
inhibition [39]: Active
inhibition [40]: Active
Activity [41]: Non-Toxic
inhibition [42]: Active
